Results published in ChEMBL document CHEMBL1201862, “PubChem BioAssay data set” (2004).
Active and inactive are the calls of the source.

Key:
[1] = inhibitors of SNCA 5'UTR-driven reporter translation, confirmation, H4 neuroglioma cells, luminescence (AID 1988); assay type: functional, cell-based
[2] = inhibitors of firefly luciferase expression or activity, dose response, H4 neuroglioma cells, luminescence (AID 1990); assay type: functional, cell-based
[3] = Luminescence Cell-Based Dose Response HTS to Identify Inhibitors of 5'UTR Stem-Loop Driven Prion Protein mRNA Translation in H4 Neuroglioblastoma Cells. [Related pubchem assays: 1827 (Project Summary), 1813 (Primary HTS)]; assay type: functional
[4] = molecular target: T1, Heat shock factor protein 1 (Mus musculus, UniProt P38532); assay: inhibition of MG132-induced HSE-luciferase signal, confirmation, cell-based, NIH3T3, luminescence, dose retest (AID 2382); assay type: functional;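 also: NIH3T3 fibroblasts with HSF1-driven luciferase reporter stressed by proteasome inhibitor MG132; luminescence from HSF1-driven luciferase expression after 8 hours of MG132 stress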
T1 sequence (P38532 whole entry): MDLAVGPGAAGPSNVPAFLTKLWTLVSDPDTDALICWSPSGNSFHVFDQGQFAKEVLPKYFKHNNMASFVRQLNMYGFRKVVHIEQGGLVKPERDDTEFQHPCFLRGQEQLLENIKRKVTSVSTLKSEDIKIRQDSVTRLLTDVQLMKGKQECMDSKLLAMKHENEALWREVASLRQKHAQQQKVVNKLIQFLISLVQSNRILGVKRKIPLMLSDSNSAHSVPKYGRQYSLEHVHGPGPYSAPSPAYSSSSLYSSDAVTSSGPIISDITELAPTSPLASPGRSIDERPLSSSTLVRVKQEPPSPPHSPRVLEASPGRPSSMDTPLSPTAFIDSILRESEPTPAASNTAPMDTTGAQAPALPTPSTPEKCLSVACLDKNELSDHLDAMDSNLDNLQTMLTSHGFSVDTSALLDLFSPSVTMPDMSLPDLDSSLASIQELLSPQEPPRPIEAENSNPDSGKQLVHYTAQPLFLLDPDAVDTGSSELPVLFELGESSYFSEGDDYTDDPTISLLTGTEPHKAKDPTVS

Cytochrome P450 2C19 = Cytochrome P450 2C19 (Homo sapiens, UniProt P33261); assay: Cytochrome panel assay with activity outcomes. Panel member name: p450-cyp2c19 Compounds with AC50 equal or less than 10 uM are considered active; assay type: functional; conditions: read-out: AC50
Cytochrome P450 2C9 = Cytochrome P450 2C9 (Homo sapiens, UniProt P11712)
[5] = molecular target: T2, Replicative DNA helicase DnaB (Mycobacterium tuberculosis, UniProt P9WMR3); assay: DnaB intein splicing inhibitors, dose response, biochemical, cell-free fluorescence (AID 449749); assay type: functional
T2 sequence (P9WMR3 whole entry): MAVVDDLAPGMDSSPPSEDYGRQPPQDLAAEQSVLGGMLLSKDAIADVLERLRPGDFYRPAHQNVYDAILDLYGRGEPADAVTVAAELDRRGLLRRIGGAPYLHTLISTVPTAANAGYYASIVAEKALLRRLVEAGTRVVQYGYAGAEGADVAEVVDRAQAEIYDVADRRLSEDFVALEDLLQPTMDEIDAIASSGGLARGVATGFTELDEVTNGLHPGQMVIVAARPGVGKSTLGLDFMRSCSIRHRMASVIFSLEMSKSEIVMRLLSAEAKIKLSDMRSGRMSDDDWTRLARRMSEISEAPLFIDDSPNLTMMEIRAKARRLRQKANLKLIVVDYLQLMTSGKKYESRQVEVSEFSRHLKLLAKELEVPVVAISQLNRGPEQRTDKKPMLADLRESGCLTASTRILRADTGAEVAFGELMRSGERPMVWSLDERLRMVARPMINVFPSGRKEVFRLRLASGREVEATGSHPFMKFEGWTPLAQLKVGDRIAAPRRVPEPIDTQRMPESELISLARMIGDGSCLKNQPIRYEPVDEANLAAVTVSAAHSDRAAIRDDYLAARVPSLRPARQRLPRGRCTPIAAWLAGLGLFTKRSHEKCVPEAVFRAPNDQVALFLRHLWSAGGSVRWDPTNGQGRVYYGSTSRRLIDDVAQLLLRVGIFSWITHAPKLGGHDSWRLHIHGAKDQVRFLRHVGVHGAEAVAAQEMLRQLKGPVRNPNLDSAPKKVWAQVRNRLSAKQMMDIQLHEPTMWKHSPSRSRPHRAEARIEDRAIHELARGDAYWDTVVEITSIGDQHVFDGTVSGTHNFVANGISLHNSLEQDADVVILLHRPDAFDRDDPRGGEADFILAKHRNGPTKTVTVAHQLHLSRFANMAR

Protein RecA = molecular target: T3, Protein RecA (Mycobacterium tuberculosis, UniProt P9WHJ3); assay: Fluorescence Cell-Free Homogeneous Dose Retest to Identify Inhibitors of RecA-Intein Splicing Activity. [Related pubchem assays (depositor defined):AID2097, AID2223, AID489010, AID492950]; assay type: functional
T3 sequence (P9WHJ3 whole entry): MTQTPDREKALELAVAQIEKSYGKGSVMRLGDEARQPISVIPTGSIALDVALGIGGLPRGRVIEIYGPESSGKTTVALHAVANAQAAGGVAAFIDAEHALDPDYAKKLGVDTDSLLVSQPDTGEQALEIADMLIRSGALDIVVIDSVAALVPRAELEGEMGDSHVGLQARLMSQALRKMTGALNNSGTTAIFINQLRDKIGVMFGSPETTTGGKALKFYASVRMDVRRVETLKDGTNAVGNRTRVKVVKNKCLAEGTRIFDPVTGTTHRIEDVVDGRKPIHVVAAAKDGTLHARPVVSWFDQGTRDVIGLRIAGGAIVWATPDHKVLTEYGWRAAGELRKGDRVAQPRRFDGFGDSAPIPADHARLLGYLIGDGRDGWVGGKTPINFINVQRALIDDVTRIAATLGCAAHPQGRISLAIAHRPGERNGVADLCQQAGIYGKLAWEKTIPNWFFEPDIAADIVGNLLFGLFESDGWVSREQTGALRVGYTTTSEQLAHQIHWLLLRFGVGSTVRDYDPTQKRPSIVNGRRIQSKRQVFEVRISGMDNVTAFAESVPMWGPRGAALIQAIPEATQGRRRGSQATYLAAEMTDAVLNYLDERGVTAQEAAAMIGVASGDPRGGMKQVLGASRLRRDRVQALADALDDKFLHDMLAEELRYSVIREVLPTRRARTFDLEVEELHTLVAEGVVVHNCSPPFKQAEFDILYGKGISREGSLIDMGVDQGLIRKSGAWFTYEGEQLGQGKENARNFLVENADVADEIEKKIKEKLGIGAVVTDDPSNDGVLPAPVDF

[6] = molecular target: T1, Heat shock factor protein 1; assay: HSF1 potentiators in luciferase reporter cells, confirmation, cell-based, NIH3T3, luminescence, dose retest (AID 435004); assay type: functional;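 also: stress induced by proteasome inhibitor MG132 added 30 min after compound; luciferase reporter driven by HSF1 response element in NIH3T3 cells; actives raise luminescence as potentiators of the MG132 stress response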
[7] = cytotoxicity toward NIH3T3 fibroblasts, dose response, counter-screen, cell-based, ATP luminescence, mouse fibroblasts (AID 2010); assay type: functional;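 also: cells exposed to compound for about 90 hours before reading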
[8] = inhibitors of intracellular T. cruzi replication, confirmation, NIH3T3 host cells, beta-gal luminescence (AID 2044); assay type: functional, cell-based;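 also: intracellular parasites grown in NIH/3T3 mouse fibroblasts as host cells; luminescent beta-galactosidase reporter signal from transgenic T. cruzi replicating inside host cells; inhibitors lower the luminescence signal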

Chain of Cytochrome P450 2C9 (P11712 whole entry): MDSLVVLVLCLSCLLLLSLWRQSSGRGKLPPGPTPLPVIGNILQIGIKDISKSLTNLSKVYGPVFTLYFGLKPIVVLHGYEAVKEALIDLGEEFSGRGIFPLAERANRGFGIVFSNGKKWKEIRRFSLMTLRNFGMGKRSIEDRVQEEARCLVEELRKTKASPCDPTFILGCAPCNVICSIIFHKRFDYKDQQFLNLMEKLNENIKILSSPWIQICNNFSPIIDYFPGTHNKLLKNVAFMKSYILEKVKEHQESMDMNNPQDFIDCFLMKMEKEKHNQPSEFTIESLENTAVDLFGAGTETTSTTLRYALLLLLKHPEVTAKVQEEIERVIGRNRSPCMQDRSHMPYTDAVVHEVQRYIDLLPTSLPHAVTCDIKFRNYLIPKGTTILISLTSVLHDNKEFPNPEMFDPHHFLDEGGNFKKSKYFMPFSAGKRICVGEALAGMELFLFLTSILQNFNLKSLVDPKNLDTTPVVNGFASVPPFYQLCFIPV
Chain of Cytochrome P450 2C19 (P33261 whole entry): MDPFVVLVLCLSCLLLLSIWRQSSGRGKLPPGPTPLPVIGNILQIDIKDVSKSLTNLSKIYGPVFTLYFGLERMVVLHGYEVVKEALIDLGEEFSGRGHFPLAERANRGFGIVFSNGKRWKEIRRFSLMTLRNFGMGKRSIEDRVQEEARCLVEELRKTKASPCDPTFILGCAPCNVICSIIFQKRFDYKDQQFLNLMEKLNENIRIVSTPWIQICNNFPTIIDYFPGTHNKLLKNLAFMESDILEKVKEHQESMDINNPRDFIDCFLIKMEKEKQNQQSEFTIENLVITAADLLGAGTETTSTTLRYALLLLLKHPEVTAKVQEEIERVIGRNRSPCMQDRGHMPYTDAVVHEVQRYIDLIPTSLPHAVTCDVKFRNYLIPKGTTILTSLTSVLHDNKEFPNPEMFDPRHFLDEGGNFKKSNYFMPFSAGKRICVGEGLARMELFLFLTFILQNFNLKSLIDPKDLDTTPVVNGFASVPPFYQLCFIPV

CCOc1ccccc1NC(=O)Cn1nnc(C(=O)NCc2ccc3c(c2)OCO3)c1N
EC50 [1]: > 120 µM (not active) | EC50 [2]: > 120 µM (not active) | EC50 [3]: 36.7 µM (active)

COc1ccc(N2CCN(C(=O)COC(=O)CCOc3ccccc3C)CC2)cc1
EC50 [4]: > 195 µM (not active)

CCO/C(O)=C1/C(C)=Nc2ncnn2C1c1cccnc1 (stereo unspecified)
AC50 (Cytochrome P450 2C19): 22.4 µM (inconclusive) | AC50 (Cytochrome P450 2C9): 25.1 µM (inconclusive)

Cc1n[nH]c(O)c1C(c1ccc(F)cc1)c1c(C)n[nH]c1O
AC50 [5]: 0.628 µM (active) | EC50 (Protein RecA): 0.291 µM (active)

O=S(=O)(NCc1ccccn1)c1ccc2ccccc2c1
EC50 [6]: > 260 µM (inactive)

Cc1ccc2c(c1)N(Cc1ccc([N+](=O)[O-])cc1)C=NS2(=O)=O
EC50 [4]: > 195 µM (not active)

O=C(Nc1cccc(-c2ccc(F)cc2)c1)C1CCCN(C(=O)c2cscn2)C1 (stereo unspecified)
EC50 [4]: > 195 µM (not active)

COc1c([N+](=O)[O-])c(=O)oc2ccccc12
EC50 [4]: > 195 µM (not active)

CCN(C1CCS(=O)(=O)C1)S(=O)(=O)c1cccs1 (stereo unspecified)
EC50 [4]: > 195 µM (not active)

COC(=O)c1c(N2C(=O)[C@H]3[C@@H](C2=O)[C@]2(C(=O)Nc4c(C)cccc42)N2CCC[C@@H]32)sc(C)c1C
EC50 [4]: > 195 µM (not active)

COc1ccc2[nH]c(CN3CCC(CO)(CCOc4ccccc4)CC3)c(C)c2c1
AC50 [5]: > 380 µM (inactive) | EC50 (Protein RecA): > 380 µM (inactive)

N#Cc1ccc(CN2CCC3(CC2)CCN(C(=O)c2cnccn2)CC3)cc1
AC50 (Cytochrome P450 2C9): 39.8 µM (inconclusive)

O=C(Nc1ccc2c(c1)ncn2C1CCCCC1)c1ccco1
EC50 [4]: > 195 µM (not active)

Fc1ccccc1-c1nc2nc3ccccc3nc2n1CC1CCCO1 (stereo unspecified)
EC50 [6]: > 260 µM (inactive)

COc1cccc(NC=C2C(=O)CC(C)(C)CC2=O)c1
EC50 [6]: 8.09 µM (active)

CN1CCN(C(=O)c2ccc(Cn3cc(Cl)cn3)o2)CC1
EC50 [6]: > 260 µM (inactive)

COc1ccc(NC(=O)Nc2c(O)ccc3ccccc23)cc1
AC50 [5]: > 380 µM (inactive) | EC50 (Protein RecA): 1.49 µM (active)

CC(C)C(C)N(Cc1ccc(C(=O)O)cc1)C(=O)c1ccc2ccccc2n1 (stereo unspecified)
EC50 [6]: > 260 µM (inactive)

COc1ccc(N2CCN(C(c3cccs3)C(C)NS(=O)(=O)c3ccccc3)CC2)cc1 (stereo unspecified)
EC50 [6]: > 260 µM (inactive)

O=S1(=O)C=C(N2CCOCC2)c2ccccc21
AC50 (Cytochrome P450 2C9): 39.8 µM (inconclusive)

S=C1NCCN1 [ETHYLENE THIOUREA]
EC50 [4]: > 195 µM (not active)

O=C(Cc1cccs1)NCc1ccccc1Br
EC50 [6]: > 260 µM (inactive)

Cc1cc(C)n(-c2nc3ccccc3s2)n1
EC50 [4]: > 195 µM (not active)

CN(C)c1ccc(C(=O)n2nnc3ccccc32)cc1
AC50 [5]: 7.46 µM (active) | EC50 (Protein RecA): 9.71 µM (active)

Cc1ccc2oc(C(=O)N3CCC(C(N)=O)(N4CCCCC4)CC3)c(C)c2c1
EC50 [4]: > 195 µM (not active)

Clc1ccccc1-c1cncnc1NCc1cccs1
AC50 (Cytochrome P450 2C9): 0.794 µM (inconclusive)

COc1ccc(Cl)cc1N1C(=O)/C(=C\c2sccc2C)N=C1SCC(=O)NC1CC1
EC50 [6]: > 260 µM (inactive)

O=C1CC(N2C(=O)/C(=C/C=C/c3ccccc3)SC2=S)C(=O)N1c1ccccc1 (stereo unspecified)
EC50 [6]: > 260 µM (inactive)

Cc1sc2ncnc(N3CCOCC3)c2c1C
EC50 [1]: 17.5 µM (active) | EC50 [2]: 20.4 µM (active) | EC50 [3]: 40.6 µM (active)

CCCN(CCC)C(=O)CSc1nc2nnc(C)c-2c(N)n1-c1ccc(OC)cc1
EC50 [1]: 16.1 µM (active) | EC50 [2]: 19.3 µM (active) | EC50 [3]: 19.8 µM (active)

COc1ccc(Cc2noc(-c3ccc(OC)c(OC)c3)n2)cc1OC
EC50 [1]: > 120 µM (not active) | EC50 [2]: > 120 µM (not active) | EC50 [3]: > 120 µM (not active)

CCC12C(=O)C(CC)(C(c3ccccc3)=C1c1ccccc1)[C@@H]1C(=O)N(c3ccc(C)cc3)C(=O)C12 (stereo partly specified)
EC50 [1]: > 120 µM (not active) | EC50 [7]: > 30 µM (not active) | EC50 [2]: 14.8 µM (active) | EC50 [3]: > 120 µM (not active) | EC50 [8]: 2.87 µM (active)

COc1cc(OC)cc(C(=O)N/N=C(\C)CC(=O)Nc2ccccn2)c1
AC50 [5]: 13.1 µM (active) | EC50 (Protein RecA): 7.81 µM (active)

O=C(Nc1ccc2[nH]ncc2c1)c1ccccc1Cl
EC50 [4]: > 195 µM (not active)

CCN1C(=O)[C@H]2[C@@H](c3ccc(C)cc3)N3C(=O)N(c4ccc(C)cc4)C(=O)[C@@]3(C)[C@H]2C1=O
EC50 [4]: > 195 µM (not active)

Cc1ccccc1/[N+]([O-])=C/c1cccs1
EC50 [6]: > 260 µM (inactive)

O=C(Cc1ccccc1)NC(=S)Nc1cc(C(F)(F)F)ccc1Cl
AC50 (Cytochrome P450 2C9): 3.55 µM (inconclusive)

CCOc1ccc(NC(=S)N(CCc2ccncc2)C(C)C)cc1
EC50 [4]: > 195 µM (not active)

CCc1ccc(NC(=O)COC(=O)/C=C/c2c(C)nn(C3CCS(=O)(=O)C3)c2Cl)cc1 (stereo unspecified)
EC50 [6]: > 260 µM (inactive)

CCOc1ccccc1-c1noc(CCCC(=O)NC2CCCCC2)n1
EC50 [6]: > 260 µM (inactive)

CN1CCN(C(=O)c2cc([N+](=O)[O-])cc([N+](=O)[O-])c2)CC1
EC50 [4]: > 195 µM (not active)

COc1cc(C(=O)N(C)C2CCCN(Cc3ccccc3F)C2)cc(OC)c1OC (stereo unspecified)
EC50 [4]: > 195 µM (not active)

CC1(c2cccs2)CC(c2cccs2)=C(C#N)C(=O)N1 (stereo unspecified)
EC50 [6]: > 260 µM (inactive)

COC(=O)Nc1ccc(S(=O)(=O)Nc2cccc3ccccc23)cc1
EC50 [6]: > 260 µM (inactive)

Cc1n[nH]c(O)c1C(c1ccc2c(c1)OCO2)c1c(C)n[nH]c1O
AC50 [5]: 0.324 µM (active) | EC50 (Protein RecA): 0.189 µM (active)

O=C(NCc1nc2ccccc2[nH]1)C1=C[C@@H](c2ccc3c(c2)OCO3)C[C@@H](OCc2ccc(CO)cc2)O1
EC50 [4]: > 195 µM (not active)

COc1ccc(N(CC(=O)Nc2cccc(C)c2)S(=O)(=O)c2c(C)noc2C)cc1
EC50 [4]: > 195 µM (not active)
